Patent US20150313209A1, “SOLUTION FOR PRESERVING VASCULAR CONDUITS” (SOMAHLUTION, LLC, priority 2012, published 2015)

Experiment: Stability of ascorbic acid and reduced glutathione in solution over time (chromatography with electrospray MS / photo diode array detection)
Type: physicochemical
Conditions: stored at room temperature
Description: A second solution and the final formulation from Example 1 were analyzed to evaluate the stability of ascorbic acid and reduced glutathione over a period of time at room temperature. The final formulation was formed by mixing together the first and second solutions and its pH was adjusted to about 7.4. […] The stability of ascorbic acid and the stability of reduced glutathione were determined over a period of time in both solutions. Both the final formulation and the second solution were stored at room temperature. The chromatography method developed and employed for this study separated the ascorbic acid and glutathione reproducibly and without any mutual interference between the components or their decomposition products. Two components were detected using electrospray spectrometry in +ve selected ion monitoring mode. In addition L-Ascorbic acid, and L-glutathione were also detected by photo diode array absorbing in the 190-400 nm range. The integrated chromatographic intensities of each of the component peaks was a measure of its molar quantity in solution analyzed. The pH, conductivity, and osmolalities were also measured for each sample. The stability indicating properties of GALA were evaluated at: 40° C.±2° C./75% RH±5% Relative Humidity (RH). A qualified stability chamber with uniform and constant temperature and relative humidity was used for storing the product containers. The chamber's thermometer and digital readout were recorded daily. Samples received for the proposed stability study were logged and tracked in a Sample Receipt and Storage Log and maintained at 2-8° C. until the commencement of the study. A minimum of twenty one containers of the device from each representative batch of the first and second solutions were placed in the stability chamber maintained at 40° C.±2° C./75% RH±5% RH. This date was recorded as the zero time point. Three containers of each of the first and second solutions were pulled at 0, 5, 9, 15, 30, 50, and 80-day intervals from the stability chamber for testing.

[1] = in the final formulation (first and second solutions mixed) having a pH of about 7.4
[2] = in the second solution having a pH of about 3.0

| rate of decay [1] | rate of decay [2] | Compound |
| --- | --- | --- |
| about 15 mg per day | about 3 mg per day | O=C1O[C@H]([C@@H](O)CO)C(O)=C1O [ascorbic acid, L-ascorbic acid] |
| about 6 mg per day | about 3 mg per day | N[C@@H](CCC(=O)N[C@@H](CS)C(=O)NCC(=O)O)C(=O)O [reduced glutathione, L-glutathione (reduced)] |
